These results are taken from patent US10167296B2, “Sulfoximine substituted quinazolines for pharmaceutical compositions” (EVOTEC INTERNATIONAL GMBH, priority 2014, dated 2019).

Assay [1] concerns MNK2 (MNK2a or MNK2b) or MNK1. The note with it: cell culture cells transfected with MNK2 (MNK2a or MNK2b) or MNK1; cited from earlier work.
Assay [2] deals with MNK1a (pre-activated GST-MNK1a) (Homo sapiens (Human), UniProt Q9BUB5). Briefly: MNK1 in vitro kinase assay (assay 2), Z'-LYTE. The assay is classed as biochemical. To be noted: for inhibition at 1 µM: compound concentration of 1 μM, read-out: Mnk1 % Inh. From the text:
B. MNK1 In Vitro Kinase Assay (Assay 2)
MNK1 Data can be obtained from the MNK1 Z′-LYTE® assay. The MNK1 Z′-LYTE® screening protocol and assay conditions are also described on www.invitrogen.com.
The assay is described as follows:
The Z′-LYTE® biochemical assay employs a fluorescence-based, coupled-enzyme format and is based on the differential sensitivity of phosphorylated and non-phosphorylated peptides to proteolytic cleavage. The peptide substrate is labeled with two fluorophores—one at each end—that make up a FRET pair.
In the primary reaction, the kinase transfers the gamma-phosphate of ATP to a single tyrosine, serine or threonine residue in a synthetic FRET-peptide. In the secondary reaction, a site-specific protease recognizes and cleaves non-phosphorylated FRET-peptides. Phosphorylation of FRET-peptides suppresses cleavage by the Development Reagent. Cleavage disrupts FRET between the donor (i.e., coumarin) and acceptor (i.e., fluorescein) fluorophores on the FRET-peptide, whereas uncleaved, phosphorylated FRET-peptides maintain FRET. A ratiometric method, which calculates the ratio (the Emission Ratio) of donor emission to acceptor emission after excitation of the donor fluorophore at 400 nm, is used to quantitate reaction progress, as shown in the equation below. Emission Ratio=Coumarin Emission(445 nm)/Fluorescein Emission(520 nm)
The inhibition of kinase activity of MNK1a was assessed using pre-activated GST-MNK1a. The 2×MKNK1 (MNK1) mixture is prepared in 50 mM HEPES pH 7.5, 0.01% BRIJ-35, 10 mM MgCl2, 4 mM MnCl2, 1 mM EGTA, 2 mM DTT. The final 10 μL Kinase Reaction consists of 13.5-54 ng MKNK1 (MNK1) and 2 μM Ser/Thr 07 in 50 mM HEPES pH 7.5, 0.01% BRIJ-35, 10 mM MgCl2, 2 mM MnCl2, 1 mM EGTA, 1 mM DTT. After the 1 hour Kinase Reaction incubation, 5 μL of a 1:32768 dilution of Development Reagent A is added.
The Test Compounds are screened in 1% DMSO (final) in the well.
All Peptide/Kinase Mixtures are diluted to a 2×working concentration in the MNK1 Kinase Buffer.
All ATP Solutions are diluted to a 4×working concentration in Kinase Buffer (50 mM HEPES pH 7.5, 0.01% BRIJ-35, 10 mM MgCl2, 1 mM EGTA).
Development Reagent Solution:
The Development Reagent is diluted in Development Buffer
Bar-coded Corning, low volume NBS, 384-well plate (Corning Cat. #3676)
1. 2.5 μL—4×Test Compound
2. 5 μL—2×Peptide/Kinase Mixture
5. 60-minute Kinase Reaction incubation at room temperature
6. 5 μL—Development Reagent Solution
8. 60-minute Development Reaction incubation at room temperature
9. Read on fluorescence plate reader and analyze the data
The following equations are used for each set of data points:
Correction for Background Fluorescence: FISample−FITCFI Ctl Emission Ratio (using values corrected for background fluorescence):Coumarin Emission (445 nm)/Fluorescein Emission (520 nm)
% Phosphorylation (% Phos): 1−((Emission Ratio×F100%)−C100%)/((C0%−C100%)+[Emission Ratio×(F100%−F0%)])*100
% Inhibition: 1−(% PhosSample/% Phos0% Inhibition Ctl)*100 FI=Fluorescence Intensity C100%=Average Coumarin emission signal of the 100% Phos. Control C0%=Average Coumarin emission signal of the 0% Phos. Control F100%=Average Fluorescein emission signal of the 100% Phos. Control F0%=Average Fluorescein emission signal of the 0% Phos. Control
SelectScreen® Kinase Profiling Service uses XLfit from IDBS. The dose response curve is curve fit to model number 205 (sigmoidal dose-response model).

The target of assay [3] is MNK2a (pre-activated GST-MNK2a) (Homo sapiens (Human), UniProt Q9HBH9). Briefly: MNK2a in vitro kinase assay (assay 1), ADP-Glo. The note with it: read-out: Mnk2 IC50. It is filed as biochemical. The protocol:
A. MNK2a In Vitro Kinase Assay (Assay 1)
The inhibition of kinase activity of MNK2a was assessed using pre-activated GST-MNK2a. The white, 384-well OptiPlate F plates were purchased from PerkinElmer. The ADP-Glo Kinase Assay (including ultra pure ATP) was purchased from Promega (V9103). Activated MNK2a was obtained as described in WO2011/104340. […] ID No. 5 of WO 2011/104340 by the C-terminal —CONH2 group, was purchased from Thermo Fisher Scientific. All other materials were of highest grade commercially available. Compounds are tested in either serial dilutions or single dose concentrations. The compound stock solutions are 10 mM in 100% DMSO The serial compound dilutions are prepared in 100% DMSO followed by 1:27.3 intermediate dilution in assay buffer. The final DMSO concentration in assay will be <3%.
In the 384-well plates 3 μl of test compound from the intermediate dilution is mixed with 4 μl of the activated MNK2 enzyme (final concentration of 10 nM) and 4 μl of the peptide (final concentration of 25 μM)/ultra pure ATP (final concentration of 20 μM), all dissolved in assay buffer. This step is followed by an incubation time of 90 min, then 10 μl of ADP Glo reagent are added, followed by 40 min of incubation. Then 20 μl of kinase detection reagent are admixed. The plates are sealed and after an incubation period of 30 min, the luminescence signal is measured in an Envision reader to determine the amount of produced ADP. All incubation steps are performed at room temperature.
The assay buffer consists of 20 mM HEPES, 2 mM DTT, 0.01% BSA, 20 mM MgCl2 and 0.1% Pluronic F-127.
The luminescent signal generated is proportional to the ADP concentration produced and is correlated with activated MNK2 activity. The analysis of the data is performed by the calculation of the percentage of ATP consumption of activated MNK2 in the presence of the test compound compared to the consumption of ATP in the presence of activated MNK2 without compound. (RLU(sample)−RLU(low control))*100/(RLU(high value)−RLU(low control))
[RLU=Relative Luminescence Units]
Values of more than 100% CTL are normally related to compound/sample specific physico-chemical properties (e.g. solubility, light absorbance, fluorescence).
IC50 values based on dose response curves are calculated with the AssayExplorer software.
A general note: In ADP-Glo the light output rises with the ADP produced.

Chain of MNK2a (pre-activated GST-MNK2a) (Q9HBH9 whole entry): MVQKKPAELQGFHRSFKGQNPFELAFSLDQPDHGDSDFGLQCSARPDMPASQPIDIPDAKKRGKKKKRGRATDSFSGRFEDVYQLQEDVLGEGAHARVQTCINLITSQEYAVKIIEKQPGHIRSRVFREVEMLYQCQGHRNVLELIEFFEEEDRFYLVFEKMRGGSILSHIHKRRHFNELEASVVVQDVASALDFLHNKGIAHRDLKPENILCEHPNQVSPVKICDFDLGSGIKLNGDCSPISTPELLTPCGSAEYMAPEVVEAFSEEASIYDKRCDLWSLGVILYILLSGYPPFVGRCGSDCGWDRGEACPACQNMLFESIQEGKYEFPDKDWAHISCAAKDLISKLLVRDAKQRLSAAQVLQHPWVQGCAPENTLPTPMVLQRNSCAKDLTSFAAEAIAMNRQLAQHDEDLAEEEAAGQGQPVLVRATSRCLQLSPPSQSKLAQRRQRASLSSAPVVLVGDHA
Chain of MNK1a (pre-activated GST-MNK1a) (Q9BUB5 other isoform, or with tags, fused parts or gaps): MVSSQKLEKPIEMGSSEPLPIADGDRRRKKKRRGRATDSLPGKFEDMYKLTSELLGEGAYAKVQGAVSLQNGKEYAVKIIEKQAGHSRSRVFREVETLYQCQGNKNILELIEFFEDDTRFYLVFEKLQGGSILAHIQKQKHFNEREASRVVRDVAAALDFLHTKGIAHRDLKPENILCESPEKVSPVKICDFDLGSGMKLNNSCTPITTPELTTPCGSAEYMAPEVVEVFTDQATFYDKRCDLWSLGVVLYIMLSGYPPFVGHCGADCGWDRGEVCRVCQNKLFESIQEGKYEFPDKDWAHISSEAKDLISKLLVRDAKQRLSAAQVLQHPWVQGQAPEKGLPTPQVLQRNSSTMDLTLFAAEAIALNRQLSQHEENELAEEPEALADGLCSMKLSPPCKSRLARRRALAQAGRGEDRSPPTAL

With `Nc1ncnc2n[nH]c(Nc3ccc(F)cc3)c12` [CGP57380], the “reduction of phosphorylated elF4E” value in assay [1] is reported as “strong reduction”. Usually IC50 stands for the concentration at which inhibition is half-maximal. As for `COc1c(N=S2(=O)CCCC2)cc2ncnc(Nc3ccc(Cl)cc3O[C@H](C)C(=O)NCC(F)(F)F)c2c1C` [Example 2.56], the inhibition at 1 µM in assay [2] worked out at 97%. In addition, the IC50 in assay [3] worked out at 2.7 nM. In the case of `COc1c(N=S2(=O)CCC2)cc2ncnc(Nc3ccc(F)cc3O[C@@H]3CO[C@H]4[C@@H]3OC[C@H]4O)c2c1C` [Example 2.06], the figures for the 50% inhibitory concentration (IC50) in assay [2] and in assay [3] were 18 nM and 1.2 nM, respectively. Regarding `COc1c(N=S(C)(C)=O)cc2ncnc(Nc3ccc(F)cc3O[C@H]3CC[C@H](O)CC3)c2c1C` [Example 2.22], the inhibition at 1 µM in assay [2] was 98%. For the same compound, in assay [3], the IC50 is 2.5 nM.

For the compound `COc1c(N=S2(=O)CCC2)cc2ncnc(Nc3cc4cn[nH]c4cc3OC(C)C)c2c1C` [Example 2.27], the 50% inhibitory concentration (IC50) in assay [2] worked out at 87 nM; in assay [3], 3.9 nM.

On to `Cc1c(O)c(N=S(C)(C)=O)cc2ncnc(Nc3ccc(F)cc3O[C@H](C)C(F)(F)F)c12` [Example 2.51], for which, in assay [2], the inhibition at 1 µM amounted to 77%. Also, in assay [3], the 50% inhibitory concentration (IC50) came to 6.9 nM.

Regarding `COc1c(N=S(C)(C)=O)cc2ncnc(Nc3ccc(F)cc3OC3CCOCC3)c2c1C` [Example 2.14], in assay [2], the inhibition at 1 µM came to 98%. Moreover, the IC50 in assay [3] came to 3.7 nM. Turning to `COc1c(N=S2(=O)CCC2)cc2ncnc(Nc3ccc(F)cc3O[C@H](C)C(=O)NCC(F)(F)F)c2c1C` [Example 2.11], the results for the half-inhibitory concentration (IC50) in assay [2] and in assay [3] were 56 nM and 1.9 nM, respectively. Take `COc1c(N=S(C)(=O)C2CCOCC2)cc2ncnc(Nc3ccc(F)cc3O[C@@H]3CO[C@@H]4CCO[C@@H]43)c2c1C` (some centres unmarked) [Example 2.12]: the inhibition at 1 µM in assay [2] worked out at 95%. The IC50 in assay [3] was 2.3 nM. `COc1c(N=S(C)(C)=O)cc2ncnc(Nc3ccc(F)cc3O[C@H]3CCOC3)c2c1C` [Example 2.50]: the IC50 in assay [2] was 44 nM; in assay [3] it was 2 nM. On to `COc1c(N=S2(=O)CCCC2)cc2ncnc(Nc3ccc(F)cc3O[C@@H]3CO[C@H]4[C@@H]3OC[C@H]4OC)c2c1Cl` [Example 2.55], for which, in assay [2], the inhibition at 1 µM was determined as 104%. For the same compound, in assay [3], the IC50 turned out to be 1.6 nM.

Regarding `COc1c(N=S(C)(C)=O)cc2ncnc(Nc3ccc(Cl)cc3O[C@H](C)C(=O)NCC(F)(F)F)c2c1C` [Example 2.29], in assay [2], the inhibition at 1 µM came to 96%. Also, in assay [3], the IC50 was found to be 2.6 nM.
